Results on 20 molecules are retold here after patent US9796711B2, “Substituted pyrazolo[3,4-b]pyridin-6-carboxylic acids and method of use” (AbbVie S.àr.l., priority 2015, dated 2017).

Assay [1] concerns the target T1, ΔF508-CFTR (Homo sapiens, UniProt P13569, DEL508-508).
T1 construct: host or cells: CFBE41o-, doxycycline-inducible
As to the kind of experiment: CFTR cell surface levels using HRP-tagged ΔF508-CFTR expressing CFBE cells, in the presence of a co-corrector. The class given is cell-based. The note with it: HRP-tagged ΔF508-CFTR expressing CFBE cells, in the presence of 3 μM co-corrector; for EC50: read-out: EC50. An outline of the steps: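 Cells were seeded with 0.5 μg/mL doxycycline and held 68 h at 37 °C. Test compounds plus 3 μM co-corrector (final 0.1% DMSO) were then added for 20 h at 33 °C. Washed cells received HRP substrate, and luminescence was normalized between DMSO and 3 μM co-corrector controls.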

Assay [2] addresses T1, ΔF508-CFTR. As to the kind of experiment: CFTR cell surface levels using HRP-tagged ΔF508-CFTR expressing CFBE cells, intrinsic corrector capacity. The class given is cell-based. To be noted: for EC50: read-out: EC50. The method, boiled down: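 Here the cells express ΔF508-CFTR with horseradish peroxidase inserted in extracellular loop 4, so only rescued channel at the surface gives luminescent signal. Compounds act on their own, 20 h at the reduced temperature of 33 °C; values are percent activity relative to DMSO and a 3 μM corrector.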

[3] abbreviates: HRP-tagged ΔF508-CFTR CFBE41o- cells, compounds alone (intrinsic corrector capacity), 20 hours at 33° C., positive control 3 μM corrector.
Setting [4] is: HRP-tagged ΔF508-CFTR CFBE41o- cells, compounds alone (intrinsic corrector capacity), 20 hours at 33° C.
The mark [5] stands for this setting: HRP-tagged ΔF508-CFTR expressing CFBE cells, intrinsic corrector capacity (no co-corrector), 33° C., 20 hours.

T1 sequence (P13569 with tags, fused parts or gaps DEL508-508): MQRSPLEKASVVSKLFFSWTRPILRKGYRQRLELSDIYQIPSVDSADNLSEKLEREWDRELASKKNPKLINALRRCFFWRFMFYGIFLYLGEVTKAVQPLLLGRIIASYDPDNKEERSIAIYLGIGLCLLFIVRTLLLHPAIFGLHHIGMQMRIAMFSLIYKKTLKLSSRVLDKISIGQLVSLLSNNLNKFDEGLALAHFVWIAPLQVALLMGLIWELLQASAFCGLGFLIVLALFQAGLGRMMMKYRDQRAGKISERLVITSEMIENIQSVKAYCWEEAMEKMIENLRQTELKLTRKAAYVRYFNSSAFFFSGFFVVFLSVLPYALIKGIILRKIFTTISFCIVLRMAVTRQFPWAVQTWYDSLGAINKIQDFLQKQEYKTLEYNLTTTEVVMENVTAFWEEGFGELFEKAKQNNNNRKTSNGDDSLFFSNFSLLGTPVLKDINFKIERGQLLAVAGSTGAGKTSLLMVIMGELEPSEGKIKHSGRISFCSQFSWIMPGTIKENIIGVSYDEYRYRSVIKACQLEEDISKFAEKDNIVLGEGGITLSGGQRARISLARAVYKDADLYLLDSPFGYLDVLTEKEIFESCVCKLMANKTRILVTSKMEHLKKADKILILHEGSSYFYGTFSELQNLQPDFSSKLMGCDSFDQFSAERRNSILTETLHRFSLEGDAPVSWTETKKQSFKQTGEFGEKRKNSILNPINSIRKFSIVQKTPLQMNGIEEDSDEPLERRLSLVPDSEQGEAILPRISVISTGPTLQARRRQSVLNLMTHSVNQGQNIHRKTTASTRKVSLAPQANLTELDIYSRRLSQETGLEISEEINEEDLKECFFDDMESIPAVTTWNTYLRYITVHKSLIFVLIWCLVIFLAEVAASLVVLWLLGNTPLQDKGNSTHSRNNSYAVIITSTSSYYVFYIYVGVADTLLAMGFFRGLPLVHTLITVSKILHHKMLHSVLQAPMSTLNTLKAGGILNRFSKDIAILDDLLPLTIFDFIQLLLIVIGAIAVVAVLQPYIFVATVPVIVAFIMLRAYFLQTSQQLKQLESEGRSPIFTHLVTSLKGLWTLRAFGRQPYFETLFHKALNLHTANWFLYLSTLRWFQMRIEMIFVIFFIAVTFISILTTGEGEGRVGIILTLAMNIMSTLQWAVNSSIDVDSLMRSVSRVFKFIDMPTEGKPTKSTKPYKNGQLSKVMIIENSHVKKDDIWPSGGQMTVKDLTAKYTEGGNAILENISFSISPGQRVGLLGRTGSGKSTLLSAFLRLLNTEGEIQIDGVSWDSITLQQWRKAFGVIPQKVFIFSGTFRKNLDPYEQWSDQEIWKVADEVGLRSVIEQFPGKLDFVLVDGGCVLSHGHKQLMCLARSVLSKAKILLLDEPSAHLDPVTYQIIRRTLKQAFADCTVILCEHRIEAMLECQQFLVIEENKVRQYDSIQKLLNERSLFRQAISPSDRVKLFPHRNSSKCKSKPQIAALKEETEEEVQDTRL

Regarding `CC(C)c1nn(-c2cccc(C(F)(F)F)c2)c2nc(C(=O)O)cc(-c3cnc(N(C)C4CCOCC4)nc3)c12` [compound 281, 4-{2-[methyl(oxan-4-yl)amino]pyrimidin-5-yl}-3-(propan-2-yl)-1[3-(trifluoromethyl)phenyl]-1H-pyrazolo[3,4-b]pyridine-6-carboxylic acid], the results for the “% Activation” value on ΔF508-CFTR [1] and on ΔF508-CFTR [2] (setting [3]) were 425.85% and 226.7%, respectively. The figures for the EC50 at ΔF508-CFTR [1] and at ΔF508-CFTR [2] (setting [4]) were 908 nM and 1290 nM, respectively.

For `CC(C)c1nn(-c2ccc(F)cc2)c2nc(C(=O)O)cc(N3CCCN(C)CC3)c12` [compound 769, 1-(4-fluorophenyl)-4-(4-methyl-1,4-diazepan-1-yl)-3-(propan-2-yl)-1H-pyrazolo[3,4-b]pyridine-6-carboxylic acid], the “% Activation” value at ΔF508-CFTR [1] worked out at 157.2%; at ΔF508-CFTR [2] (setting [5]), 19.25%. Besides, the EC50 came out at 1580 nM on ΔF508-CFTR [1] and 5000 nM at ΔF508-CFTR [2] (setting [5]).

For `COC(=O)N1CCN(c2ccc(-c3cc(C(=O)O)nc4c3c(C)nn4-c3ccccc3)cc2)CC1` [compound 70, 4-{4-[4-(methoxycarbonyl)piperazin-1-yl]phenyl}-3-methyl-1-phenyl-1H-pyrazolo[3,4-b]pyridine-6-carboxylic acid], the “% Activation” value at ΔF508-CFTR [1] is 355.6%; at ΔF508-CFTR [2] (setting [3]) it was 160.8%. In addition, the EC50 at ΔF508-CFTR [1] turned out to be 649 nM; at ΔF508-CFTR [2] (setting [4]), 910 nM.

Regarding `O=C(O)c1cc(N2CCCC3(CC3)C2)c2c(C3CCC3)nn(-c3ccccc3)c2n1` [compound 419, 4-(5-azaspiro[2.5]octan-5-yl)-3-cyclobutyl-1-phenyl-1H-pyrazolo[3,4-b]pyridine-6-carboxylic acid], on ΔF508-CFTR [1], the “% Activation” value was 293.9% and the EC50 was found to be 509 nM. On ΔF508-CFTR [2] (setting [5]), the “% Activation” value is 136% and the EC50 amounted to 983 nM.

Take `O=C(O)c1cc(N2CCOC(CO)C2)c2c(C3CCC3)nn(-c3ccccc3)c2n1` (centres unmarked) [compound 531, 3-cyclobutyl-4-[2-(hydroxymethyl)morpholin-4-yl]-1-phenyl-1H-pyrazolo[3,4-b]pyridine-6-carboxylic acid]: the entries for the “% Activation” value on ΔF508-CFTR [1] and at ΔF508-CFTR [2] (setting [5]) were 223.4% and 91.66%, respectively. The EC50 on ΔF508-CFTR [1] was determined as 1450 nM; on ΔF508-CFTR [2] (setting [5]), 3330 nM.

For `Cc1nn(-c2ccccc2)c2nc(C(=O)O)cc(-c3ccc(NC4CCOCC4)cc3)c12` [compound 145, 3-methyl-4-{4-[(oxan-4-yl)amino]phenyl}-1-phenyl-1H-pyrazolo[3,4-b]pyridine-6-carboxylic acid], the results for the “% Activation” value at ΔF508-CFTR [1] and at ΔF508-CFTR [2] (setting [3]) were 368.6% and 190.2%, respectively. The half-maximal effective concentration (EC50) on ΔF508-CFTR [1] amounted to 850 nM; at ΔF508-CFTR [2] (setting [4]), 1430 nM.

For `Cc1nn(-c2ccccc2)c2nc(C(=O)O)cc(-c3ccc(N4CCOCC4)c(Br)c3)c12` [compound 66, 4-[3-bromo-4-(morpholin-4-yl)phenyl]-3-methyl-1-phenyl-1H-pyrazolo[3,4-b]pyridine-6-carboxylic acid], the results for the “% Activation” value at ΔF508-CFTR [1] and at ΔF508-CFTR [2] (setting [3]) were 131.3% and 13.06%, respectively. In addition, the EC50 at ΔF508-CFTR [1] and on ΔF508-CFTR [2] (setting [4]) was greater than 10000 nM each time.

As for `COC1CN(c2cc(C(=O)O)nc3c2c(C2CCC2)nn3-c2ccccc2)C1` [compound 542, 3-cyclobutyl-4-(3-methoxyazetidin-1-yl)-1-phenyl-1H-pyrazolo[3,4-b]pyridine-6-carboxylic acid], on ΔF508-CFTR [1], the “% Activation” value turned out to be 290.6% and the EC50 is 1780 nM. For the same molecule, on ΔF508-CFTR [2] (setting [5]), the “% Activation” value was found to be 104.6% and the EC50 was determined as 1840 nM.

As to `CC(C)c1nn(-c2ccc(F)cc2)c2nc(C(=O)O)cc(N3CCN4CCC[C@@H]4C3)c12` [compound 770, 1-(4-fluorophenyl)-4-[(8aR)-hexahydropyrrolo[1,2-a]pyrazin-2(1H)-yl]-3-(propan-2-yl)-1H-pyrazolo[3,4-b]pyridine-6-carboxylic acid], at ΔF508-CFTR [1], the “% Activation” value came out at 234.5% and the concentration giving a half-maximal response (EC50) is 900 nM. Besides, at ΔF508-CFTR [2] (setting [5]), the “% Activation” value is listed as 85.33% and the EC50 was 1670 nM.

For the molecule `COCCC1CCN(c2cc(C(=O)O)nc3c2c(C2CCC2)nn3-c2ccccc2)CC1` [compound 403, 3-cyclobutyl-4-[4-(2-methoxyethyl)piperidin-1-yl]-1-phenyl-1H-pyrazolo[3,4-b]pyridine-6-carboxylic acid], the “% Activation” value worked out at 507.25% on ΔF508-CFTR [1] and 293.4% on ΔF508-CFTR [2] (setting [5]). Moreover, the figures for the EC50 on ΔF508-CFTR [1] and at ΔF508-CFTR [2] (setting [5]) were 311 nM and 408 nM, respectively.

As to `N#CC1CCN(c2ccc(-c3cc(C(=O)O)nc4c3c(C3CCC3)nn4-c3ccnc(N4CCOCC4)c3)cn2)CC1` [compound 416, 4-[6-(4-cyanopiperidin-1-yl)pyridin-3-yl]-3-cyclobutyl-1-[2-(morpholin-4-yl)pyridin-4-yl]-1H-pyrazolo[3,4-b]pyridine-6-carboxylic acid], the figures for the “% Activation” value at ΔF508-CFTR [1] and on ΔF508-CFTR [2] (setting [5]) were 369.5% and 179.1%, respectively. In addition, the EC50 was determined as 785 nM on ΔF508-CFTR [1] and 1250 nM on ΔF508-CFTR [2] (setting [5]).

For `Cc1cccc(-n2nc(C3CCC3)c3c(N4CCC(N5CCOCC5)CC4)cc(C(=O)O)nc32)c1` [compound 820, 3-cyclobutyl-1-(3-methylphenyl)-4-[4-(morpholin-4-yl)piperidin-1-yl]-1H-pyrazolo[3,4-b]pyridine-6-carboxylic acid], on ΔF508-CFTR [1], the “% Activation” value stood at 499.75% and the EC50 turned out to be 123 nM. At ΔF508-CFTR [2] (setting [5]), the “% Activation” value was 351.3% and the EC50 is 285 nM.

With `O=C(O)c1cc(OCCN(C2CCCCC2)C2COC2)c2c(C3CCC3)nn(-c3ccccc3)c2n1` [compound 625, 3-cyclobutyl-4-{2-[cyclohexyl(oxetan-3-yl)amino]ethoxy}-1-phenyl-1H-pyrazolo[3,4-b]pyridine-6-carboxylic acid], the “% Activation” value at ΔF508-CFTR [1] was found to be 326.75%; at ΔF508-CFTR [2] (setting [5]), 135.2%. The EC50 turned out to be 126 nM at ΔF508-CFTR [1] and 300 nM at ΔF508-CFTR [2] (setting [5]).

For `CC(C)c1nn(-c2cccc(N(C)C)c2)c2nc(C(=O)O)cc(-c3cnc(N4CCC(C#N)CC4)nc3)c12` [compound 199, 4-[2-(4-cyanopiperidin-1-yl)pyrimidin-5-yl]-1-[3-(dimethylamino)phenyl]-3-(propan-2-yl)-1H-pyrazolo[3,4-b]pyridine-6-carboxylic acid], the results for the “% Activation” value on ΔF508-CFTR [1] and on ΔF508-CFTR [2] (setting [3]) were 602.4% and 356.9%, respectively. For the same molecule, the EC50 was 917 nM at ΔF508-CFTR [1] and 1220 nM on ΔF508-CFTR [2] (setting [4]).

`Cc1nn(-c2ccccc2)c2nc(C(=O)O)cc(-c3ccc(N4CCC(F)(F)C4)cc3)c12` [compound 111, 4-[4-(3,3-difluoropyrrolidin-1-yl)phenyl]-3-methyl-1-phenyl-1H-pyrazolo[3,4-b]pyridine-6-carboxylic acid]: the “% Activation” value at ΔF508-CFTR [1] was determined as 299.8%; at ΔF508-CFTR [2] (setting [3]), 110.34%. Also, the EC50 was 424 nM at ΔF508-CFTR [1] and 459 nM at ΔF508-CFTR [2] (setting [4]).

Turning to `CC(C)c1nn(-c2cccc(N(C)C)c2)c2nc(C(=O)O)cc(N3CCCCC3)c12` [compound 328, 1-[3-(dimethylamino)phenyl]-4-(piperidin-1-yl)-3-(propan-2-yl)-1H-pyrazolo[3,4-b]pyridine-6-carboxylic acid], the figures for the “% Activation” value at ΔF508-CFTR [1] and at ΔF508-CFTR [2] (setting [3]) were 422.25% and 196.9%, respectively. Also, the results for the EC50 at ΔF508-CFTR [1] and on ΔF508-CFTR [2] (setting [4]) were 463 nM and 671 nM, respectively.

On to `CC(C)c1nn(-c2ccc(OC(F)(F)F)cc2)c2nc(C(=O)O)cc(-c3ccc(N4CCOCC4)cc3)c12` [compound 43, 4-[4-(morpholin-4-yl)phenyl]-3-(propan-2-yl)-1-[4-(trifluoromethoxy)phenyl]-1H-pyrazolo[3,4-b]pyridine-6-carboxylic acid], for which the results for the “% Activation” value on ΔF508-CFTR [1] and at ΔF508-CFTR [2] (setting [3]) were 360.8% and 187.4%, respectively. Moreover, the EC50 came out at 371 nM on ΔF508-CFTR [1] and 408 nM at ΔF508-CFTR [2] (setting [4]).

As for `N#CC1CCN(c2ccc(-c3cc(C(=O)O)nc4c3c(OC3CCNC3)nn4-c3ccccc3)cn2)CC1` (centres unmarked) [compound 550, 4-[6-(4-cyanopiperidin-1-yl)pyridin-3-yl]-1-phenyl-3-[(pyrrolidin-3-yl)oxy]-1H-pyrazolo[3,4-b]pyridine-6-carboxylic acid], on ΔF508-CFTR [1], the “% Activation” value was found to be 122.4% and the concentration giving a half-maximal response (EC50) was greater than 10000 nM. Further, on ΔF508-CFTR [2] (setting [5]), the “% Activation” value is 4.775% and the EC50 was greater than 10000 nM.

Take `CC(C)c1nn(C2CCCCC2)c2nc(C(=O)O)cc(-c3ccn(C)c3)c12` [compound 351, 1-cyclohexyl-4-(1-methyl-1H-pyrrol-3-yl)-3-(propan-2-yl)-1H-pyrazolo[3,4-b]pyridine-6-carboxylic acid]: the “% Activation” value was determined as 256.6% at ΔF508-CFTR [1] and 84.055% on ΔF508-CFTR [2] (setting [3]). Also, the figures for the 50% effective concentration (EC50) at ΔF508-CFTR [1] and on ΔF508-CFTR [2] (setting [4]) were 1520 nM and 1610 nM, respectively.

For the molecule `Cc1nn(-c2ccccc2)c2nc(C(=O)O)cc(OCC(F)C3CCOCC3)c12` (centres unmarked) [compound 377, 4-[2-fluoro-2-(oxan-4-yl)ethoxy]-3-methyl-1-phenyl-1H-pyrazolo[3,4-b]pyridine-6-carboxylic acid], the “% Activation” value at ΔF508-CFTR [1] is reported as 295.65%; at ΔF508-CFTR [2] (setting [3]) it was 95.185%. Moreover, the EC50 at ΔF508-CFTR [1] was 1500 nM; at ΔF508-CFTR [2] (setting [4]) it was 1670 nM.

As usually defined, the EC50 is the midpoint of the concentration-response curve.
